{"source": "patent US4740501A", "about": "(priority 1985, dated 1988)", "key": {"[1]": {"tested_on": "L1210DDP", "assay": "cells", "format": "cell-based"}, "[2]": {"tested_on": "MMTV polypeptides", "format": "cell-based, mouse"}, "[3]": {"tested_on": "P388/L-PAM leukemia", "assay": "cells", "format": "cell-based, mice"}, "[4]": {"tested_on": "spontaneous leukemia", "assay": "Treatment of spontaneous leukemia in AKR mice", "format": "in vivo", "text": "Leukemia in AKR mice, which is the result of the oncogenic activity of the endogenous Gross leukemia virus, has been effectively used as a model for human leukemias in the studies of tumor biology, chemotherapy, and chemoimmunotherapy. There is considerable evidence that leukemia in the AKR mice mimics human leukemias in many respects, and it is probable that AKR leukemia is analogous to human acute T-cell lymphocytic leukemia. Leukemic cells first appear in the thymus of mice at 6 to 12 months of age. Controlling this disease is formidable, since the cure or long range control of spontaneous leukemia in AKR mice require the therapeutic eradication of virtually all of the oncogenic cells. The time lapse between the first appearance of viable lymphoma cells in the thymus and the clinical diagnosis is about 30 days.\nThe effectiveness of the tripeptide compound in the treatment of spontaneous leukemia in AKR mice was tested. The clinical diagnosis of spontaneous leukemia in AKR mice was made with 95% accuracy by splenic and lymph node palpation, followed by leukocyte count. There is good evidence that at the time of clinical diagnosis there are 0.6-1.8×10^9 widely disseminated lymphoma cells in AKR mice. Without cytoreductive therapy, AKR mice die after diagnosis of spontaneous leukemia at the rate of 50% by 14 days, 90% by 33 days, and 96% by 56 days. […] Reduction of thymus and spleen weights to normal is indicative of eradication of the primary tumor. Leukemic AKR mice receiving either treatment sustained a mean survival time of 200% and 100%, respectively. It is also important and significant that the tripeptide compound treatment provides good sustainment since 30% of the treated animals in either group were alive after the onset on the therapy (FIG. 6)."}, "[5]": {"tested_on": "MMTV proteins", "assay": "Intracellular MMTV polypeptides (immune precipitation, NaDodSO4-PAGE)", "format": "cell-based, mouse", "conditions": "for activity at 15 µM: Mus musculus, control 100, read-out: Relative level of MMTV-associated radioactivity (%): Total MMTV Protein", "protocol": "Intracellular MMTV proteins were identified in monolayer cells after 24 or 48 hour exposure to 15 uM PTT.119. Cultures were labeled with 25 uCi/ml of (^3 H)-leucine for the first 24 hours and were then doubly labeled with (^35 S)-methionine when the spent media were replenished. The relative rates of MMTV polypeptide synthesis were determined using parallel cultures continuously-treated with PTT.119 and pulse labeled for 15 minutes with ^35 S-methionine. Following labeling, the cells were washed twice in cold 0.01M phosphate-buffered saline, pH 7.5, and a solution of protease inhibitors added to yield a final concentration of 1 uM pepstatin, 10 ug soybean trypsin inhibitor/ml, and 1 mM N-ethyl maleimide. Cells were then disrupted in 0.05M phosphate buffer containing 0.1M NaCl and 0.1% Triton X-100, pH 7.5 (Pi/NaCl/Triton). Cells were scraped from the substrate and lysis completed by passing the suspensions through a 27 gauge needle five times. Nuclei were removed by centrifugation at 600×g for 10 minutes at 4° C. and 100 ul aliquots of the supernatants mixed with 10 ul preimmune rabbit sera and 50 ul of 10% […] formalin-fixed and heat-killed.\nFollowing a 15 minute incubation at 26° C., the Staphlococcus aureus (Cowan strain) immunoabsorbent was removed by centrifugation at 10,000×g for 1 minute in a Beckman microfuge. Supernatants (100 ul) were sequentially incubated at 26° C. with 33 ul of rabbit anti-MMTV antisera for 25 minutes and 150 ul of 10% S. aureus for 15 minutes. S. aureus was then pelleted and the precipitate washed five times in Pi/NaCl/Triton. Samples were finally resuspended in 20 ul of 1% NaDodSO4 /2-mercaptoethanol, heated for 1 minute at 100° C. to release MMTV proteins, and centrifuged to remove S. aureus. Supernatants were then subjected to NaDodSO4 -PAGE. Samples were disrupted in 1% NaDodSO4 and 1% B-mercaptoethanol at 100° C. for 1 minute electrophoresed on 10-20% polyacrylamide gradient slab gels using a discontinuous buffer system. Electrophoresis of immune precipitates from cell lysates was carried out in a similar manner using 7.5-15% polyacrylamide gradients. Mr of MMTV-related polypeptides were determined by coelectrophoresis of [^14 C]-protein standards (Mr 30,000 to 50,000 Da; New England Nuclear). Radioactivity was determined and the levels associated with MMTV polypeptide peaks quantitated using a generalized curve-fit computer program."}, "[6]": {"tested_on": "L1210/L-PAM leukemia cells", "parameters": "species or system BDF1 mice", "conditions": "mouse, in vivo"}, "[7]": {"tested_on": "B-16 melanoma cell layers", "assay": "Tumor cell survival (trypan blue), continuous exposure", "format": "cell-based, Mouse"}}, "note": "pIC50: −log10 of the molar value. Several values for one entry are separate records, joined by “and”; a condition that tells them apart may be missing. Identical values can stand only once. Like-named read-outs stand apart in the source and are kept apart here.", "data": [{"smiles": "CCOC(=O)[C@H](CCSC)NC(=O)[C@H](Cc1cccc(N(CCCl)CCCl)c1)NC(=O)[C@@H](N)Cc1ccc(F)cc1.Cl", "note": "[PTT.119, 3-(p-fluorophenyl)-L-alanyl-3-[m-bis(2-chloroethyl)aminophenyl]-L-alanyl-L-methionine ethyl ester hydrochloride]", "values": [{"measurement": "pIC50", "setting": "[1]; 24 h, read-out: T.C.D.50", "result": 6.28}, {"measurement": "concentration at which remaining L1210DDP population becomes sensitive", "setting": "[1]; 24 hours exposure", "result": "4 to 15", "unit": "µM"}, {"measurement": "share of L1210DDP cells highly susceptible", "setting": "[1]; doses of 1 uM, 24 hours", "result": "Approximately 60%"}, {"measurement": "decrease of level of p24 compared to virions from solvent cultures", "setting": "[2]", "result": 36, "unit": "%"}, {"measurement": "level of nonglycosylated protein p24 in MMTV particles", "setting": "[2]", "result": "substantial decreases"}, {"measurement": "level of p24 protein in the virion core", "setting": "[2]", "result": "diminution"}, {"measurement": "reduction in p24", "setting": "[2]", "result": 71, "unit": "%"}, {"measurement": "relative level of p24 compared to control", "setting": "[2]", "result": "35-40%"}, {"measurement": "relative contribution of p24 in the virions, % of control level", "setting": "[2]; hydrochloride", "result": "54% and 74% and 65%"}, {"measurement": "T.C.D.100", "setting": "[3]", "result": 22.5}, {"measurement": "surviving fraction at end of examination period", "setting": "[3]", "result": "0-0.5%"}, {"measurement": "percentage of viable cells", "setting": "[3]; 3.75 µM", "result": "0-1%"}, {"measurement": "pIC50", "setting": "[3]; Mus musculus, P388, 24 h, read-out: T.C.D.50", "result": 5.30}, {"measurement": "mean survival time", "setting": "[4]; 5 mg per kg on days 1, 4, 7, 21, and 42", "result": 100, "unit": "%"}, {"measurement": "mean survival time", "setting": "[4]; 10 mg per kg on days 1 and 14", "result": 200, "unit": "%"}, {"measurement": "leukemic thymus and spleen weights", "setting": "[4]; after chemotherapy, either regimen", "result": "Significant reductions"}, {"measurement": "treated animals alive after the onset of therapy", "setting": "[4]; either treatment group", "result": 30, "unit": "%"}, {"measurement": "levels of radiolabeled MMTV polypeptides higher than in parallel controls", "setting": "[5]; 15 min pulse labelling at end of 24 and 48 hour treatment", "result": 1.5, "unit": "fold"}, {"measurement": "activity at 15 µM", "setting": "[5]; 24 hr, 15 min pulse labelling", "result": 181, "unit": "%"}, {"measurement": "activity at 15 µM", "setting": "[5]; 48 hr, 15 min pulse labelling", "result": 154, "unit": "%"}, {"measurement": "activity at 15 µM", "setting": "[5]; 48 hr, 24 hr labeling", "result": 125, "unit": "%"}, {"measurement": "activity at 15 µM", "setting": "[5]; 24 h, 24 hr, 24 hr labeling", "result": 128, "unit": "%"}, {"measurement": "tumorigenicity of L1210/L-PAM cells", "setting": "[6]", "result": "Complete abrogation"}, {"measurement": "% tumor cell survival", "setting": "[7]; 5 ug/ml, 1 hr", "result": 100, "unit": "%"}, {"measurement": "% tumor cell survival", "setting": "[7]; 5 ug/ml, 4 hr", "result": 100, "unit": "%"}, {"measurement": "% tumor cell survival", "setting": "[7]; 5 ug/ml, 8 hr", "result": 100, "unit": "%"}, {"measurement": "% tumor cell survival", "setting": "[7]; 5 ug/ml, 24 hr", "result": 74, "unit": "%"}, {"measurement": "% tumor cell survival", "setting": "[7]; 10 ug/ml, 1 hr", "result": 100, "unit": "%"}, {"measurement": "% tumor cell survival", "setting": "[7]; 10 ug/ml, 4 hr", "result": 100, "unit": "%"}, {"measurement": "% tumor cell survival", "setting": "[7]; 10 ug/ml, 8 hr", "result": 63, "unit": "%"}, {"measurement": "% tumor cell survival", "setting": "[7]; 10 ug/ml, 24 hr", "result": 64, "unit": "%"}, {"measurement": "% tumor cell survival", "setting": "[7]; 25 ug/ml, 1 hr", "result": 100, "unit": "%"}, {"measurement": "% tumor cell survival", "setting": "[7]; 25 ug/ml, 4 hr", "result": 100, "unit": "%"}, {"measurement": "% tumor cell survival", "setting": "[7]; 25 ug/ml, 8 hr", "result": 92, "unit": "%"}, {"measurement": "% tumor cell survival", "setting": "[7]; 25 ug/ml, 24 hr", "result": 60, "unit": "%"}, {"measurement": "% tumor cell survival", "setting": "[7]; 50 ug/ml, 1 hr", "result": 100, "unit": "%"}, {"measurement": "% tumor cell survival", "setting": "[7]; 50 ug/ml, 4 hr", "result": 100, "unit": "%"}, {"measurement": "% tumor cell survival", "setting": "[7]; 50 ug/ml, 8 hr", "result": 58, "unit": "%"}, {"measurement": "% tumor cell survival", "setting": "[7]; 50 ug/ml, 24 hr", "result": 33, "unit": "%"}]}]}
